# Where two headings read alike, the source gives them in different places. Starred links: 1 amine or outer side, 2 acyl side, 3 side chain; linkers in the order of their positions; H or OH if unused. Non-standard residues stand in square brackets, D forms with d. Residues, ends and D or L forms follow the SMILES beside them. *: point of attachment. X1 = Cc1cc(F)cc(-c2cnc(NCCNC(=O)CCOCCC(=O)*)c(-c3nc4ccc(Cl)cc4[nH]3)c2N2CCC(N)CC2)c1; Dolaproine = CO[C@@H]([C@@H]1CCCN1)[C@@H](C)C(=O)O; Dil = CC[C@H](C)[C@H](NC)[C@@H](CC(=O)O)OC; PABC = O=C(OCc1ccc(N[*:1])cc1)[*:2]; X2 = C[C@@H](N*)[C@@H](O)c1ccccc1; Cya = N[C@@H](CS(=O)(=O)O)C(=O)O; Cit = NC(=O)NCCC[C@H](N)C(=O)O; NMeV = CN[C@H](C(=O)O)C(C)C
# Columns and labels:
# Type in all cases: cell-based
# [1] = target: T1, human somatostatin receptor subtype 2 (Homo sapiens, UniProt P30874); experiment: Functional cAMP assay for SSTR2 agonists (HTRF) in CHO-K1 cells; conditions: CHO-K1 cells stably expressing human SST2, 20 min
# T1 construct: expressed in transfected cells
# T1 sequence (P30874 whole entry): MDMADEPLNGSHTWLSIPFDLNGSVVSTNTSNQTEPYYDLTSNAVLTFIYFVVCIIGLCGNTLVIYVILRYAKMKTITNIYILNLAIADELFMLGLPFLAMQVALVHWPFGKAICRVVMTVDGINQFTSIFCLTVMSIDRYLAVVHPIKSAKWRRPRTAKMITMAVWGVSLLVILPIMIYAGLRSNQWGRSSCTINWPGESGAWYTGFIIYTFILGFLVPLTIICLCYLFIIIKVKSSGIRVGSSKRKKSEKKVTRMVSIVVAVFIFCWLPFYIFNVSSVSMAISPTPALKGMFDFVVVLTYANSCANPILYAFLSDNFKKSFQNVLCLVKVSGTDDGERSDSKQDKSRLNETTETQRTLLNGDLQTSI
# How it was run: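 Agonism scored as loss of NKH477 (1.6 μM)-driven cAMP, with IBMX present, after 20 min, 37° C. exposure of stably transfected CHO-K1 cells to compound dilutions (typically 0-10,000 nM). Lysates read by time-resolved FRET; cAMP interpolated from standard curve and EC50 derived.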
# [2] = system: NCI-H524 (ATCC) human small cell lung cancer cells
# How it was run: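 CellTiter-Glo luminescence after a 2 h SMDC pulse (top dose 1 uM, 2-fold dilutions, 11 points), medium wash, then 70 h recovery. Cells were seeded at 5,000/well and dosed 24 h later. % inhibition vs control gave IC50 via four-parameter fit.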
# [3] = target: T2, SST2 (Homo sapiens, UniProt P30874); experiment: PathHunter CHO-K1 SST2 internalization assay; conditions: PathHunter CHO-K1 SST2, 90 min
# T2 construct: host or cells: PathHunter CHO-K1 SST2 cells
# T2 sequence (P30874 whole entry): as above
# How it was run: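 IC50 comes from four-parameter curves on background-corrected duplicates of Beta-Glo luminescence, read after 60 min at room temperature in the dark. Before that, CHO-K1 SST2 internalization cells (48 h post-seeding) received SMDC as eleven threefold dilutions, 10 uM highest final, for 90 min at 37 C.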
# [4] = 2 h treatment, washout, additional 70 h, read-out: H524 EC50
Structure (SMILES),EC50 ([1]; hSST2 cAMP Avg EC50 (nM)) [nM],"EC50 [2, 4] [nM]",EC50 ([3]; Internalization EC50 (nM)) [nM],EC50 ([1]; read-out: hSST2 cAMP Avg EC50) [nM],EC50 ([2]; 2 h) [nM],EC50 ([3]; read-out: Internalization EC50) [nM]
CC[C@@]1(O)C(=O)OCc2c1cc1n(c2=O)Cc2c-1nc1cc(F)c(C)c3c1c2[C@@H](NC(=O)OCc1ccc(NC(=O)[C@H](CCCNC(N)=O)NC(=O)[C@@H](NC(=O)[C@H](CCC(=O)O)NC(=O)CCOCCC(=O)NCCNc2ncc(-c4cc(C)cc(F)c4)c(N4CCC(N)CC4)c2-c2nc4ccc(Cl)cc4[nH]2)C(C)C)cc1)CC3 [Compound 71],0.29,270,1.6,–,–,–
CC[C@@]1(O)C(=O)OCc2c1cc1n(c2=O)Cc2c-1nc1cc(F)c(C)c3c1c2[C@@H](NC(=O)OCc1ccc(NC(=O)[C@H](CCCNC(N)=O)NC(=O)[C@@H](NC(=O)CN2CCN(CC(=O)O)CCN(CC(=O)NCCOCCC(=O)NCCNc4ncc(-c5cc(C)cc(F)c5)c(N5CCC(N)CC5)c4-c4nc5ccc(Cl)cc5[nH]4)CC2)C(C)C)cc1)CC3 [Compound 72],0.28,31,3.9,–,–,–
CC[C@H](C)[C@@H]([C@@H](CC(=O)N1CCC[C@H]1[C@H](OC)[C@@H](C)C(=O)N[C@H](C)[C@@H](O)c1ccccc1)OC)N(C)C(=O)[C@@H](NC(=O)[C@H](C(C)C)N(C)C(=O)OCc1ccc(NC(=O)[C@H](CCCNC(N)=O)NC(=O)[C@@H](NC(=O)CCC(=O)NCCNc2ncc(-c3cc(C)cc(F)c3)c(N3CCC(N)CC3)c2-c2nc3ccc(Cl)cc3[nH]2)C(C)C)c(O[C@@H]2O[C@H](C(=O)O)[C@@H](O)[C@H](O)[C@H]2O)c1)C(C)C [Compound 75],–,–,–,0.54,16.5,8.9
COc1cc2cc(c1Cl)N(C)C(=O)C[C@H](OC(=O)[C@H](C)N(C)C(=O)CCSSCCNC(=O)CCOCCNC(=O)C[C@@H](N)C(=O)NCCNc1ncc(-c3cc(C)cc(F)c3)c(N3CCC(N)CC3)c1-c1nc3ccc(Cl)cc3[nH]1)[C@]1(C)O[C@H]1[C@H](C)[C@@H]1C[C@@](O)(NC(=O)O1)[C@H](OC)/C=C/C=C(\C)C2 [Compound 77],–,–,–,0.21,17,5.2
"CC[C@@]1(O)C(=O)OCc2c1cc1n(c2=O)Cc2c-1nc1cc(F)c(C)c3c1c2[C@@H](NC(=O)CCOCCC(=O)NCCNc1ncc(-c2cc(C)cc(F)c2)c(N2CCC(N)CC2)c1-c1nc2ccc(Cl)cc2[nH]1)CC3 [Compound 78, N-{2-[4-(4-amino-1-piperidyl)-3-(6-chloro-1H-1,3-benzimidazol-2-yl)-5-(3-fluoro-5-tolyl)-2-pyridylamino]ethyl}3-(2-{N-(10S,23S)-10-ethyl-18-fluoro-10-hydroxy-19-methyl-5,9-dioxo-8-oxa-4,15-diazahexacyclo[14.7.1.0^2,^14.0^4,^13.0^6,^11.0^20,^24]tetracosa-1,6(11),12,14,16,18,20(24)-heptaen-23-ylcarbamoyl}ethoxy)propionamide]",0.23,170,0.77,–,–,–
CC[C@H](C)[C@@H]([C@@H](CC(=O)N1CCC[C@H]1[C@H](OC)[C@@H](C)C(=O)N[C@H](C)[C@@H](O)c1ccccc1)OC)N(C)C(=O)[C@@H](NC(=O)[C@H](C(C)C)N(C)C(=O)OCc1ccc(NC(=O)[C@H](CCCNC(N)=O)NC(=O)[C@@H](NC(=O)CCOCCC(=O)NCCNc2ncc(-c3cc(C)cc(F)c3)c(N3CCC(N)CC3)c2-c2nc3ccc(Cl)cc3[nH]2)C(C)C)cc1C(=O)NCCN)C(C)C [Compound 82],–,–,–,0.31,0.79,6
CC[C@H](C)[C@@H]([C@@H](CC(=O)N1CCC[C@H]1[C@H](OC)[C@@H](C)C(=O)N[C@H](C)[C@@H](O)c1ccccc1)OC)N(C)C(=O)[C@@H](NC(=O)[C@H](C(C)C)N(C)C(=O)OCc1ccc(NC(=O)[C@H](CCCNC(N)=O)NC(=O)[C@@H](NC(=O)[C@H](CS(=O)(=O)O)NC(=O)CCOCCC(=O)NCCNc2ncc(-c3cc(C)cc(F)c3)c(N3CCC(N)CC3)c2-c2nc3ccc(Cl)cc3[nH]2)C(C)C)cc1)C(C)C [Compound 83] (X1-[Cya]V[Cit][PABC][NMeV]V[Dil][Dolaproine]-X2),–,–,–,0.11,20,2.9
